{"source": "patent US7122520B2", "about": "“Methods of modulating appetite using agouti-related transcript polypeptides” (Amgen Inc., priority 1996, dated 2006)", "key": {"feeding response of rats": {"test_system": "feeding response of rats", "settings": "injection into the brain of rats; cited from earlier work"}, "food intake of rats": {"test_system": "food intake of rats", "assay": "Feeding behavior of rats treated with ART (intracerebroventricular injection)", "type": "in vivo, Long-Evans male rats", "description": "Long-Evans male rats weighing 300–500 grams were chronically implanted in the brain with a 22 gauge cannula aimed at the lateral ventricle. The steriotaxic coordinates for the canulas were approximately: 0.8 mm anterior/posterior; 1.4 mm medial/lateral; and 3.5 mm dorsal/ventral. A 3.5 mm, 28 gauge stylet remained inside the implanted cannula until the animal was ready for an injection. ART peptide or control solutions were administered with a 28 gauge injector that extended about 1 mm beyond the tip of the cannula.\nART peptide was dissolved in PBS (pH about 7.0) and injected into the lateral ventricle at doses ranging from about 0.075 nmol to about 7.5 nmol in a volume of about 2 μl. Controls were PBS and an unfolded version of ART at about 7.5 nmol. Feeding measurements were taken from pre-weighed dishes containing a mixture of ground rodent chow, sugar, and condensed milk. (45%:28%:27%). Rats were offered this mixture along with their regular chow about 24 hours prior to injection. About one and one half hours prior to infusion, the regular chow was removed, but the rats were allowed to continue feeding on the sweetened mixture. Injections were done at 8:30 am or at 8:30 pm. Food intake was assessed by weighing the dishes over time at 90 minutes, 4 hours, 8 hours, 12 hours, and 24 hours after injection. 10–12 rats were used per group."}, "MC1 receptor": {"biological_target": "T1, MC1 receptor (Mus musculus, UniProt Q01727)", "T1 construct": "at the MC1 receptor in B16F10 mouse melanoma cell cultures; endogenous in cells; host or cells: B16F10 mouse melanoma cells", "T1 sequence (Q01727 whole entry)": "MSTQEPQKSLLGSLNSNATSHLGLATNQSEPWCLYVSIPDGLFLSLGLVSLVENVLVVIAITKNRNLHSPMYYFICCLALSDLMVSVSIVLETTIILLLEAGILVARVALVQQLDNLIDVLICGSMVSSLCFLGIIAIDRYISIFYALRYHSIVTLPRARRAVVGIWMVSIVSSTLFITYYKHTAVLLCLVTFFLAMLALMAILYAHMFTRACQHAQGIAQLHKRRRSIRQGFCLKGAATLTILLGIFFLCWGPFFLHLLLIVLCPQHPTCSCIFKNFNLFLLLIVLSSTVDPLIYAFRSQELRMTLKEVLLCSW", "settings": "B16F10 mouse melanoma cell cultures; cited from earlier work"}}, "note": "Ends that are not written are not given here."}
{"molecule": "melanin concentrating hormone (DFDMLRCMLGRVYRPCWQV; ends and bridges not checked; cysteine pairing not given here; UniProt P20382 147-165, looked up) [MCH]", "values": [{"measurement": "feeding response", "setting": "feeding response of rats", "result": "stimulates a feeding response"}]}
{"molecule": "folded ART: synthetic peptide containing amino acids 79–132 of ART (SEQ ID NO:8), refolded in Tris-HCl/urea (REPRSSRRCVRLHESCLGQQVPCCDPCATCYCRFFNAFCYCRKLGTAMNPCSRT; cysteine pairing not given here; also: refolded)", "values": [{"measurement": "food intake (cumulative amount of food consumed)", "setting": "food intake of rats; injection into lateral ventricle, 0.075-7.5 nmol in about 2 μl, measured 90 minutes to 24 hours after injection, vs PBS and unfolded ART controls", "result": "increased their food intake as compared to controls"}, {"measurement": "relation between amount of ART injected and amount of food eaten", "setting": "food intake of rats; lateral ventricle, doses about 0.075 nmol to about 7.5 nmol", "result": "correlation between the amount of ART injected and the amount of food eaten"}]}
{"molecule": "mouse agouti protein: 131 amino acid secreted protein encoded by the mouse agouti gene (protein, UniProt Q03288 23-131, looked up) Agouti-signaling protein: HLALEETLGDDRSLRSNSSMNSLDFSSVSIVALNKKSKKISRKEAEKRKRSSKKKASMKKVARPPPPSPCVATRDSCKPPAPACCDPCASCQCRFFGSACTCRVLNPNC", "values": [{"measurement": "antagonism of a-MSH at the MC1 receptor", "setting": "MC1 receptor", "result": "potent antagonist"}]}
